Results published in article PMC8719521, “Spectral, Anti-Inflammatory, Anti-Pyretic, Leishmanicidal, and Molecular Docking Studies, Against Selected Protein Targets, of a New Bisbenzylisoquinoline Alkaloid” (Frontiers in Chemistry, 2021).

Key:
yeast-induced pyrexia = assay: Anti-pyretic studies, brewer's yeast-induced pyrexia; assay type: in vivo, Albino rats; settings: for activity against yeast-induced hyperthermia: 10 and 20 mg/kg s.c., 30, 60, and 120 min
Procedure: (§1) Albino rats (180–200 g) of either sex were used in all experiments. The animals were kept under standard laboratory conditions (25 °C and light/dark cycles, i.e., 12/12 h) and were fed with standard food and water ad libitum.
Albino rats of either sex weighing 180–200 g were used for anti-pyretic studies. The animals were divided into five groups with each group having six albino rats (n = 6). All the animals were given free access to food and water. Basal rectal temperature was measured using a digital clinical thermometer before injecting the yeast. Hyperthermia was induced in rats by sub-cutaneous (s.c.) injection of 20% aqueous suspension of brewer’s yeast (20 ml/ kg) in the back below the nape of the neck ([Loux et al., 1972]). Group 1 was treated with normal saline as a control, and group 2 was treated with indomethacin (10 mg/kg, s. c) as the standard drug, while the remaining groups 3–5 were treated with compound 1–5 (10 mg/ kg and 20 mg/ kg, s. c). After 24 h from the yeast injection, the rise in the rectal temperature was recorded at regular intervals of 30, 60, and 120 min after drug administration.

[1] = tested on: promastigotes of Leishmania tropica (clinical field isolate KWH23); assay: Anti-leishmanial assay on promastigotes; assay type: cell-based; settings: for anti-leishmanial properties: at all four tested concentrations, 48 h
Procedure: The initial culture was raised in the 5 ml M-199 medium supplemented with 10% heat-inactivated fetal bovine serum (HI-FBS), 100 μg/ ml penicillin, 100 μg/ ml streptomycin, 50 μg/ ml kanamycin, and 5 μg/ ml of hemin in a 15-ml culture flask. The culture flask was kept in an incubator at 26°C, and the medium was changed every third day. The cultures were given enough time (10–14 days) to fully develop and promastigotes to reach the metacyclic stage. The culture was then sub-passaged by pouring the contents of the flask containing the promastigotes into a centrifuge tube. The tubes were then spun in a Sigma centrifuge at 2000 rpm for 12 min. After spinning, the medium was carefully poured off leaving the pellet only. This pellet was re-suspended in the 2–4 ml growth medium, and new cultures were established. The primary culture was used for sensitivity assays, and additional cultures were cryopreserved in liquid nitrogen at −196°C for future use.
The culture of L. tropica clinical field isolate KWH23 was established from already cryopreserved collection in the Department of Zoology, University of Peshawar. The initial culture was raised in the 5 ml M-199 medium supplemented with 10% heat-inactivated fetal bovine serum (HI-FBS), 100 μg/ ml penicillin, 100 μg/ ml streptomycin, 50 μg/ ml kanamycin, and 5 μg/ ml of hemin in a 15-ml culture flask. Two experiments were run at a time under the same conditions in 96-well flat-bottom plates. The promastigotes were counted in culture suspension by using the improved Neubauer hemocytometer. From the viable promastigotes bulk culture (4 × 10^6/ ml), 1 × 10^5 promastigotes/well in the 200 µL fresh M-199 medium were seeded in 96-well plates. Four different concentrations for each compound were applied, and one row of 12 wells was kept as a control with the growth medium only. The 96-well plates were incubated at 26°C for 48 h. After 48 h, the number of promastigotes in each well was counted microscopically using the improved Neubauer hemocytometer.

[2] = tested on: carrageenan-induced paw edema; assay: Carrageenan-induced paw edema studies; assay type: in vivo, Albino rats; settings: for percent inhibition of carrageenan-induced paw edema: right after the carrageenan injection, p < 0.05
Procedure: as §1
Albino rats of either sex (180–200 g) were used to assess anti-inflammatory activity. The animals were randomly divided into five groups with each group having six albino rats (n = 6). Pedal inflammations in albino rats of either sex were produced according to the method described by Winter et al. (1962). Group 1 was treated with normal saline (5 ml/ kg) and group 2 was treated with oxyphenylbutazone (10 mg/ kg, i.p.), while groups 3–5 were treated with compounds 1–5 (10 mg/ kg and 20 mg/ kg, i.p.). After 30 min, 0.05 ml 1% carrageenan sodium salt (BDH) was subcutaneously injected into the plantar aponeurosis tissue of the right hind paw of each rat. The inflammation was measured using a plethysmometer (Apelex, France) immediately after +3 h of carrageenan injection. The anti-inflammatory activity was calculated using the following formula: 100(1−a−x/b−y), where “b” is the mean paw volume of control rats after carrageenan injection and “y” before the injection; whereas “x” is the mean paw volume of treated rats before injection and “a” is the mean paw volume after carrageenan injection.

Row | Compound | activity against yeast-induced hyperthermia (yeast-induced pyrexia) | anti-leishmanial properties [1] | rectal temperature in yeast-induced pyrexia (yeast-induced pyrexia; 10 and 20 mg/kg of body weight) | anti-pyretic potential (yeast-induced pyrexia; at both concentrations (10 and 20 mg/kg)) | inhibition of the promastigotes of Leishmania tropica ([1]; 48 h incubation) | percent inhibition of carrageenan-induced paw edema ([2]; 10 mg/kg of chondrofolinol) | percent inhibition of carrageenan-induced paw edema ([2]; 20 mg/kg of chondrofolinol) | paw volume in carrageenan-induced paw edema ([2]; 10 and 20 mg/kg of body weight)
1 | COc1cc2c(cc1OC)-c1cc3ccc(OC)c(OC)c3c[n+]1CC2 [Compound 4, palmatine] | significantly active | strong anti-leishmanial properties | – | – | – | – | – | –
2 | COc1ccc2cc3[n+](cc2c1OC)CCc1cc2c(cc1-3)OCO2 [Compound 2, berberine] | significantly active | strong anti-leishmanial properties | – | – | – | – | – | –
3 | COc1cc2c3cc1Oc1c(O)ccc(c1O)CC1c4c(cc(OC)c(OC)c4Oc4ccc(cc4)CC3N(C)CC2)CCN1C (centres unmarked) [Compound 1, chondrofolinol] | significantly active | strong anti-leishmanial properties | significantly reduced | milder anti-pyretic potential | ~100% | 32.12% | 53.34% | significantly reduced
4 | COc1ccc2c(c1OC)C(C(Cl)(Cl)Cl)N1CCc3cc4c(cc3C1=C2)OCO4 (centres unmarked) [Compound 5, 8-trichloromethyldihydroberberine] | significantly active | strong anti-leishmanial properties | – | – | – | – | – | –
